Legend:
Aβ oligomers [1] = biological target: T1, Aβ oligomers (Homo sapiens, UniProt P05067); assay: Isothermal titration calorimetry (ITC) binding to Aβ oligomers; settings: KD ITC, Table 1, PBS pH 7.4, 285 K, Aβ 100 µM in cell, ligand 250 µM in syringe, two independent site model
T1 construct: Ser^26 depsipeptide iso-Aβ (1–42) was used; made in house; host or cells: chemical peptide synthesis (no expression host)
Description: The binding affinities of 2b–2i to Aβ oligomers were tested in ITC experiments.
In this work, Ser^26 depsipeptide iso-Aβ (1–42) was used, which was synthesized and purified as described previously. The lyophilized iso-Aβ (1–42) was dissolved in MilliQ water to a concentration of 1 mg mL^−1, sonicated for 3 min and the pH was set to 7.0 to initiate an O to N acyl migration, whereby the native sequence can be readily formed. The sample was incubated at room temperature for 10 min. Then the pH was set to 11 and the sample was kept at room temperature for additional 2 h. After the incubation, the Aβ stock solution was aliquoted and stored at −20 °C until use. To obtain Aβ oligomers, the 1 mg mL^−1 aliquot was diluted to a final concentration of 50 μM with 26.67 mM PBS and the pH was set to 7.4 with 1 M HCl. The sample was incubated at 37 °C for 3 h.
Isothermal calorimetric titrations were performed with a Microcal VP-ITC microcalorimeter in pH 7.4 PBS buffer solution. In individual titrations, 10 µL portions of the ligand containing solution were repeatedly injected from the computer-controlled 300-µL microsyringe at intervals of 300 s into the Aβ oligomer solution prepared in the same buffer as the ligand. All measurements were carried out at 285 K. The Aβ concentration in the cell was 100 µM and the total ligand concentration was 250 µM in the syringe and the titration was stopped when the precipitation of the Aβ aggregates became excessive. Control experiments were performed by injecting the ligand into a cell containing buffer with no target, and the heats of dilution were subtracted from those measured in the presence of Aβ. The experimental data were fitted to the two independent site binding models by using a nonlinear least-squares procedure, with ΔHb, ΔHb’, Kd, Kd’ ([…]), n and n’ (number of binding sites for monomer), as adjustable parameters.

Aβ oligomers [2] = biological target: T1, Aβ oligomers; assay: Sandwich ELISA binding of biotin-tagged conjugates to Aβ
From the text: To study the role of certain structure elements in the binding affinity, a set of new foldamer sequences were designed (Figure 2) and ligated to lysine-dendron scaffolds having a focal symmetry. This template with biotin affinity tag can be easily synthesized by solid phase peptide synthesis and immobilized on a streptavidin coated support such as the surface of the ELISA plate. Structural changes included fine-tuning the side-chain properties (2b–2d), changing the position of ionic residues (2e) and introducing bulky bicyclic side-chains (2f–2i).
The binding affinities of 2b–2i to Aβ oligomers were tested in ITC experiments. In such cases where the fitting failed due to low heat response or poor solubility, sandwich ELISA experiments were performed to enable the comparison of all conjugates (see Supporting Information for details).
The apparent dissociation constants for the complete set of new conjugates were calculated individually from the data of the ELISA experiments as well. Comparing the KD values of 2f–2i in this case, the replacement of ACHC to ABHC had only a minor effect on the Aβ binding. The cyclic β-amino acid ACHC not only provides the helical conformation of such a short foldamer but also protects the ionic residues from solvent upon binding due to its hydrophobicity.

T1 sequence (P05067 672-713 limits assumed): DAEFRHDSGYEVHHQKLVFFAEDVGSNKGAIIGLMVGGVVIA

Row | SMILES | Kd (Aβ oligomers [1]; first binding stage) | Kd (Aβ oligomers [1]; second binding stage) | Kd (Aβ oligomers [2])
1 | CC1(C)[C@H]2C[C@H](N)[C@@H](C(=O)N[C@@H](CCCNC(=N)N)CC(=O)N[C@H]3CCCC[C@@H]3C(=O)N[C@H]3CCCC[C@@H]3C(=O)N[C@@H](CC(=O)O)CC(=O)N[C@H]3CCCC[C@@H]3C(=O)NCC(=O)NCC(=O)N[C@@H](CSC3CC(=O)N(CCC(=O)NCCCC[C@H](NC(=O)CCN4C(=O)CC(SC[C@H](NC(=O)CNC(=O)CNC(=O)[C@H]5CCCC[C@@H]5NC(=O)C[C@H](CC(=O)O)NC(=O)[C@H]5CCCC[C@@H]5NC(=O)[C@H]5CCCC[C@@H]5NC(=O)C[C@H](CCCNC(=N)N)NC(=O)[C@@H]5[C@@H](N)C[C@H]6C[C@@H]5C6(C)C)C(N)=O)C4=O)C(=O)NCCCC[C@H](NC(=O)[C@H](CCCCNC(=O)CCN4C(=O)CC(SC[C@H](NC(=O)CNC(=O)CNC(=O)[C@H]5CCCC[C@@H]5NC(=O)C[C@H](CC(=O)O)NC(=O)[C@H]5CCCC[C@@H]5NC(=O)[C@H]5CCCC[C@@H]5NC(=O)C[C@H](CCCNC(=N)N)NC(=O)[C@@H]5[C@@H](N)C[C@H]6C[C@@H]5C6(C)C)C(N)=O)C4=O)NC(=O)CCN4C(=O)CC(SC[C@H](NC(=O)CNC(=O)CNC(=O)[C@H]5CCCC[C@@H]5NC(=O)C[C@H](CC(=O)O)NC(=O)[C@H]5CCCC[C@@H]5NC(=O)[C@H]5CCCC[C@@H]5NC(=O)C[C@H](CCCNC(=N)N)NC(=O)[C@@H]5[C@@H](N)C[C@H]6C[C@@H]5C6(C)C)C(N)=O)C4=O)C(=O)N[C@@H](CCCCNC(=O)CCCC[C@@H]4SC[C@@H]5NC(=O)N[C@@H]54)C(N)=O)C3=O)C(N)=O)[C@@H]1C2 (stereo partly drawn) [Compound 2f] | 19.3 ± 9.4 nM | 816 ± 467 nM | 1.79 ± 0.09 nM
2 | N=C(N)NCCC[C@@H](CC(=O)N[C@H]1CCCC[C@@H]1C(=O)N[C@H]1CCCC[C@@H]1C(=O)N[C@@H](CC(=O)O)CC(=O)N[C@H]1CCCC[C@@H]1C(=O)NCC(=O)NCC(=O)N[C@@H](CSC1CC(=O)N(CCC(=O)NCCCC[C@H](NC(=O)CCN2C(=O)CC(SC[C@H](NC(=O)CNC(=O)CNC(=O)[C@H]3CCCC[C@@H]3NC(=O)C[C@H](CC(=O)O)NC(=O)[C@H]3CCCC[C@@H]3NC(=O)[C@H]3CCCC[C@@H]3NC(=O)C[C@H](CCCNC(=N)N)NC(=O)[C@H]3CCCC[C@@H]3N)C(N)=O)C2=O)C(=O)NCCCC[C@H](NC(=O)[C@H](CCCCNC(=O)CCN2C(=O)CC(SC[C@H](NC(=O)CNC(=O)CNC(=O)[C@H]3CCCC[C@@H]3NC(=O)C[C@H](CC(=O)O)NC(=O)[C@H]3CCCC[C@@H]3NC(=O)[C@H]3CCCC[C@@H]3NC(=O)C[C@H](CCCNC(=N)N)NC(=O)[C@H]3CCCC[C@@H]3N)C(N)=O)C2=O)NC(=O)CCN2C(=O)CC(SC[C@H](NC(=O)CNC(=O)CNC(=O)[C@H]3CCCC[C@@H]3NC(=O)C[C@H](CC(=O)O)NC(=O)[C@H]3CCCC[C@@H]3NC(=O)[C@H]3CCCC[C@@H]3NC(=O)C[C@H](CCCNC(=N)N)NC(=O)[C@H]3CCCC[C@@H]3N)C(N)=O)C2=O)C(=O)N[C@@H](CCCCNC(=O)CCCC[C@@H]2SC[C@@H]3NC(=O)N[C@@H]32)C(N)=O)C1=O)C(N)=O)NC(=O)[C@H]1CCCC[C@@H]1N (stereo partly drawn) [Compound 2a] | 27.6 ± 7.74 nM | 240 ± 68.7 nM | 0.95 ± 0.06 nM
3 | CC1(C)[C@H]2C[C@H](NC(=O)[C@H]3CCCC[C@@H]3NC(=O)C[C@H](CCCNC(=N)N)NC(=O)[C@H]3CCCC[C@@H]3N)[C@@H](C(=O)N[C@@H](CC(=O)O)CC(=O)N[C@H]3CCCC[C@@H]3C(=O)NCC(=O)NCC(=O)N[C@@H](CSC3CC(=O)N(CCC(=O)NCCCC[C@H](NC(=O)CCN4C(=O)CC(SC[C@H](NC(=O)CNC(=O)CNC(=O)[C@H]5CCCC[C@@H]5NC(=O)C[C@H](CC(=O)O)NC(=O)[C@@H]5[C@@H](NC(=O)[C@H]6CCCC[C@@H]6NC(=O)C[C@H](CCCNC(=N)N)NC(=O)[C@H]6CCCC[C@@H]6N)C[C@H]6C[C@@H]5C6(C)C)C(N)=O)C4=O)C(=O)NCCCC[C@H](NC(=O)[C@H](CCCCNC(=O)CCN4C(=O)CC(SC[C@H](NC(=O)CNC(=O)CNC(=O)[C@H]5CCCC[C@@H]5NC(=O)C[C@H](CC(=O)O)NC(=O)[C@@H]5[C@@H](NC(=O)[C@H]6CCCC[C@@H]6NC(=O)C[C@H](CCCNC(=N)N)NC(=O)[C@H]6CCCC[C@@H]6N)C[C@H]6C[C@@H]5C6(C)C)C(N)=O)C4=O)NC(=O)CCN4C(=O)CC(SC[C@H](NC(=O)CNC(=O)CNC(=O)[C@H]5CCCC[C@@H]5NC(=O)C[C@H](CC(=O)O)NC(=O)[C@@H]5[C@@H](NC(=O)[C@H]6CCCC[C@@H]6NC(=O)C[C@H](CCCNC(=N)N)NC(=O)[C@H]6CCCC[C@@H]6N)C[C@H]6C[C@@H]5C6(C)C)C(N)=O)C4=O)C(=O)N[C@@H](CCCCNC(=O)CCCC[C@@H]4SC[C@@H]5NC(=O)N[C@@H]54)C(N)=O)C3=O)C(N)=O)[C@@H]1C2 (stereo partly drawn) [Compound 2h] | 8.61 ± 5.64 nM | 79 ± 45.9 nM | 1.35 ± 0.08 nM
4 | NCCCC[C@@H](CC(=O)N[C@H]1CCCC[C@@H]1C(=O)N[C@H]1CCCC[C@@H]1C(=O)N[C@@H](CC(=O)O)CC(=O)N[C@H]1CCCC[C@@H]1C(=O)NCC(=O)NCC(=O)N[C@@H](CSC1CC(=O)N(CCC(=O)NCCCC[C@H](NC(=O)CCN2C(=O)CC(SC[C@H](NC(=O)CNC(=O)CNC(=O)[C@H]3CCCC[C@@H]3NC(=O)C[C@H](CC(=O)O)NC(=O)[C@H]3CCCC[C@@H]3NC(=O)[C@H]3CCCC[C@@H]3NC(=O)C[C@H](CCCCN)NC(=O)[C@H]3CCCC[C@@H]3N)C(N)=O)C2=O)C(=O)NCCCC[C@H](NC(=O)[C@H](CCCCNC(=O)CCN2C(=O)CC(SC[C@H](NC(=O)CNC(=O)CNC(=O)[C@H]3CCCC[C@@H]3NC(=O)C[C@H](CC(=O)O)NC(=O)[C@H]3CCCC[C@@H]3NC(=O)[C@H]3CCCC[C@@H]3NC(=O)C[C@H](CCCCN)NC(=O)[C@H]3CCCC[C@@H]3N)C(N)=O)C2=O)NC(=O)CCN2C(=O)CC(SC[C@H](NC(=O)CNC(=O)CNC(=O)[C@H]3CCCC[C@@H]3NC(=O)C[C@H](CC(=O)O)NC(=O)[C@H]3CCCC[C@@H]3NC(=O)[C@H]3CCCC[C@@H]3NC(=O)C[C@H](CCCCN)NC(=O)[C@H]3CCCC[C@@H]3N)C(N)=O)C2=O)C(=O)N[C@@H](CCCCNC(=O)CCCC[C@@H]2SC[C@@H]3NC(=O)N[C@@H]32)C(N)=O)C1=O)C(N)=O)NC(=O)[C@H]1CCCC[C@@H]1N (stereo partly drawn) [Compound 2b] | 53.2 ± 38.7 nM | 373 ± 104 nM | 5.36 ± 1.42 nM

Source: PMC6222781, “Structural Optimization of Foldamer-Dendrimer Conjugates as Multivalent Agents against the Toxic Effects of Amyloid Beta Oligomers” (Molecules : A Journal of Synthetic Chemistry and Natural …, 2018)
